Data taken from patent publication US9441012B2, “Fluorinated epoxyketone-based compounds and uses thereof as proteasome inhibitors” (FLUORINOV PHARMA INC., priority 2012, dated 2016).

Assays:
Assay in all cases: NCI 60 human tumor cell line screen (SRB)
Assay type in all cases: cell-based
SNB-19 = SNB-19 (CNS Cancer); 48 h
Procedure, shortened: (§1)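 Cells plated 24 h before dosing, with time-zero plates TCA-fixed at drug addition; five concentrations (10-fold or ½-log dilutions) added and incubated 48 h at 37 °C, 5% CO2. Adherent cells fixed with 10% TCA, stained with 0.4% SRB, absorbance read at 515 nm; GI50, TGI and LC50 derived from percentage growth versus time zero and control.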

HS 578T = HS 578T (Breast Cancer); 48 h
Procedure, shortened: as §1

UO-31 = UO-31 (Renal Cancer); 48 h
Procedure, shortened: as §1

HOP-92 = HOP-92 (Non-Small Cell Lung Cancer); 48 h
Procedure, shortened: as §1

SK-MEL-28 = SK-MEL-28 (Melanoma); 48 h
Procedure, shortened: as §1

KM12 = KM12 (Colon Cancer); 48 h
Procedure, shortened: as §1

NCI-H23 = NCI-H23 (Non-Small Cell Lung Cancer); 48 h
Procedure, shortened: as §1

UACC-62 = UACC-62 (Melanoma); 48 h
Procedure, shortened: as §1

NCI-H226 = NCI-H226 (Non-Small Cell Lung Cancer); 48 h
Procedure, shortened: as §1

BT-549 = BT-549 (Breast Cancer); 48 h
Procedure, shortened: as §1

SF-295 = SF-295 (CNS Cancer); 48 h
Procedure, shortened: as §1

PC-3 = PC-3 (Prostate Cancer); 48 h
Procedure, shortened: as §1

| SMILES | Log10GI50 (SNB-19) | Log10LC50 (SNB-19) | Log10TGI50 (SNB-19) | Log10GI50 (HS 578T) | Log10LC50 (HS 578T) | Log10TGI50 (HS 578T) | Log10GI50 (UO-31) | Log10LC50 (UO-31) | Log10TGI50 (UO-31) | Log10GI50 (HOP-92) | Log10LC50 (HOP-92) | Log10TGI50 (HOP-92) | Log10GI50 (SK-MEL-28) | Log10LC50 (SK-MEL-28) | Log10TGI50 (SK-MEL-28) | Log10GI50 (KM12) | Log10LC50 (KM12) | Log10TGI50 (KM12) | Log10GI50 (NCI-H23) | Log10LC50 (NCI-H23) | other results |
| --- | --- | --- | --- | --- | --- | --- | --- | --- | --- | --- | --- | --- | --- | --- | --- | --- | --- | --- | --- | --- | --- |
| Cc1ncc(C(=O)N[C@@H](COC(F)F)C(=O)N[C@@H](COC(F)F)C(=O)N[C@@H](Cc2ccccc2)C(=O)[C@@]2(C)CO2)s1 [Example 1, 2-methyl-thiazole-5-carboxylic acid ((S)-1-{(S)-1-[(S)-1-benzyl-2-((R)-2-methyloxiranyl)-2-oxo-ethylcarbamoyl]-2-difluoromethoxyethylcarbamoyl}-2-difluoromethoxyethyl)-amide] | −6.49 | >−4.00 | >−4.00 | −7.33 | >−4.00 | −5.44 | −5.84 | −4.59 | −5.32 | −6.23 | −4.39 | −5.40 | −6.85 | −4.69 | −6.12 | −6.88 | −6.10 | −6.49 | −6.85 | −5.27 | Log10TGI50 (NCI-H23): −5.92; Log10GI50 (UACC-62): −6.68; Log10LC50 (UACC-62): −4.95; Log10TGI50 (UACC-62): −5.78; Log10GI50 (NCI-H226): −7.44; Log10TGI50 (NCI-H226): −6.84; Log10GI50 (BT-549): −7.49; Log10LC50 (BT-549): −5.74; Log10TGI50 (BT-549): −6.87; Log10GI50 (SF-295): −7.17; Log10LC50 (SF-295): −4.88; Log10TGI50 (SF-295): −6.24; Log10GI50 (PC-3): −6.48; Log10LC50 (PC-3): >−4.00; Log10TGI50 (PC-3): −4.99 |
| C[C@]1(C(=O)[C@H](Cc2ccccc2)NC(=O)[C@H](COC(F)F)NC(=O)[C@H](COC(F)F)NC(=O)CN2CCOCC2)CO1 [Example 26, (S)-N-{(S)-1-[(S)-1-Benzyl-2-((R)-2-methyl-oxiranyl)-2-oxo-ethylcarbamoyl]-2-difluoromethoxyethyl}-3-difluoromethoxy-2-(2-morpholin-4-yl-acetylamino)-propio-namide] | −7.23 | >−4.00 | >−4.00 | −7.54 | >−4.00 | −6.24 | −6.62 | −5.17 | −5.95 | −7.65 | −6.35 | −7.16 | −7.38 | −4.82 | −6.69 | −7.72 | −7.06 | −7.39 | −7.62 | −5.64 | Log10TGI50 (NCI-H23): −7.13; Log10GI50 (UACC-62): −7.35; Log10LC50 (UACC-62): −4.58; Log10TGI50 (UACC-62): −6.63; Log10GI50 (NCI-H226): −7.77; Log10LC50 (NCI-H226): −7.10; Log10TGI50 (NCI-H226): −7.43; Log10GI50 (BT-549): −7.73; Log10LC50 (BT-549): −7.05; Log10TGI50 (BT-549): −7.39; Log10GI50 (SF-295): −7.68; Log10LC50 (SF-295): −6.49; Log10TGI50 (SF-295): −7.26; Log10GI50 (PC-3): −7.45; Log10LC50 (PC-3): −5.14; Log10TGI50 (PC-3): −6.80 |
| CC(C)C[C@H](NC(=O)[C@H](Cc1ccccc1)NC(=O)[C@H](COC(F)F)NC(=O)CN1CCOCC1)C(=O)[C@@]1(C)CO1 [Example 25, (2S)-2-[[(2S)-3-(difluoromethoxy)-2-[(2-morpholinoacetyl)amino]propanoyl]amino]-N-[(1S)-3-methyl-1-[(2R)-2-methyloxirane-2-carbonyl]butyl]-3-phenyl-propanamide] | −7.23 | >−4.00 | >−4.00 | −7.54 | >−4.00 | −6.24 | −6.62 | −5.17 | −5.95 | −7.65 | −6.35 | −7.16 | −7.38 | −4.82 | −6.69 | −7.72 | −7.06 | −7.39 | −7.62 | −5.64 | Log10TGI50 (NCI-H23): −7.13; Log10GI50 (UACC-62): −7.35; Log10LC50 (UACC-62): −4.58; Log10TGI50 (UACC-62): −6.63; Log10GI50 (NCI-H226): −7.77; Log10LC50 (NCI-H226): −7.10; Log10TGI50 (NCI-H226): −7.43; Log10GI50 (BT-549): −7.73; Log10LC50 (BT-549): −7.05; Log10TGI50 (BT-549): −7.39; Log10GI50 (SF-295): −7.68; Log10LC50 (SF-295): −6.49; Log10TGI50 (SF-295): −7.26; Log10GI50 (PC-3): −7.45; Log10LC50 (PC-3): −5.14; Log10TGI50 (PC-3): −6.80 |
| C[C@]1(C(=O)[C@H](Cc2ccccc2)NC(=O)[C@H](Cc2ccccc2)NC(=O)[C@H](COC(F)F)NC(=O)CN2CCOCC2)CO1 [Example 29] | −6.51 | >−4.00 | >−4.00 | −7.07 | >−4.00 | >−4.00 | −6.46 | −4.62 | −5.71 | −7.18 | −6.03 | −6.55 | −7.13 | >−4.00 | −6.34 | −7.35 | −6.27 | −6.77 | −7.21 | >−4.00 | Log10TGI50 (NCI-H23): −5.55; Log10GI50 (UACC-62): −7.00; Log10LC50 (UACC-62): >−4.00; Log10TGI50 (UACC-62): −6.37; Log10GI50 (NCI-H226): −7.64; Log10LC50 (NCI-H226): −6.51; Log10TGI50 (NCI-H226): −7.24; Log10GI50 (BT-549): −7.26; Log10LC50 (BT-549): −4.94; Log10TGI50 (BT-549): −6.59; Log10GI50 (SF-295): −7.19; Log10LC50 (SF-295): −5.94; Log10TGI50 (SF-295): −6.55; Log10GI50 (PC-3): −7.04; Log10LC50 (PC-3): >−4.00; Log10TGI50 (PC-3): −6.40 |
